# From US20260083742A1, “HOMOLOGOUS RECOMBINATION REPAIR DEFICIENCY (HRD) AS A PREDICTIVE BIOMARKER FOR TREATING CANCER WITH WEE1 INHIBITORS” (Zeno Management, Inc., priority 2023, published 2026)
# Experiments:
# [1] = tested on: uterine serous carcinoma (USC) or high-grade serous ovarian cancer (HGSOC); experiment: Azenosertib in subjects with USC or HGSOC grouped by HRRm status: tumor response and progression free survival; assay type: in vivo, human; conditions: for tumor size change, median: USC population, azenosertib 300 mg or more; for progression free survival: subjects treated with 300+mg azenosertib
# Protocol: Subjects with uterine serous carcinoma (USC) or high-grade serous ovarian cancer (HGSOC) were treated with azenosertib and grouped by azenosertib dose of lower than 300 mg (LT300) or at or greater than 300 mg azenosertib (300+mg). […] Total subjects in parenthesis includes all subjects in the study including subjects receiving LT300.
# Subjects selected in Table 1 were evaluated for tumor response when treated with doses of 300 mg or more of azenosertib or with lower than 300 mg of azenosertib. In the USC population treated with azenosertib of 300 mg or more (300+), HRRm positivity was associated with better tumor response (p=0.01). (FIG. 1B and FIG. 1C). The HRRm median was −33% and HRR wt median was −5%. […] HRRm subject population was associated with 8.3 months of progression free survival, compared to HRR wt subject population with 4.2 months progression free survival. (FIG. 1D). HRRm status was associated with better progression free survival in subjects treated with at least 300 mg azenosertib, supporting an effective dose of 300 mg or more in HRD subjects.
# [2] = tested on: 22RV1 (prostate cancer cell line) subcutaneous xenografts; experiment: 22RV1 subcutaneous xenograft tumor growth inhibition; assay type: in vivo, CB17 SCID mice
# Protocol: The prostate cancer cell line 22RV1 harbors a BRCA2 pathogenic mutation (HRD+). Briefly, 72 tumor-bearing mice were randomized and assigned into nine groups using a randomized block design based on their tumor volumes with eight mice per group. Each mouse was inoculated subcutaneously at the right flank with 22RV1 tumor cells in 0.2 mL mixture of Matrigel (5×10^6 cells/mouse). Treatments were started when the tumor size reached 199.94 mm^3 for tumor efficacy studies (Day 14 post inoculation). [table] Tumor size was measured twice weekly in two dimensions using caliper and expressed in mm3 using the formula: where a and b were long and short diameters of the tumor. The tumor size was used for calculations of T/C %. The T/C(%) was calculated according to the following formula: Two-way ANOVA followed by Bonferroni post-test was performed to compare tumor volumes among vehicle and other groups.
# [3] = tested on: HBCx-9, HBCx-10 and HBCx-17 triple-negative breast cancer (TNBC) PDX models; experiment: Anti-tumor efficacy in TNBC patient-derived xenograft models; assay type: in vivo, mice; conditions: HBCx-10 and HBCx-17 (HRD+) vs HBCx-9 (HRD-); azenosertib 60 mg/kg, niraparib 35 mg/kg
# Text: Treatments were initiated 28 days post implantation of the tumor cells. The study period ended 28 days after the start of treatment. [table]
# [4] = tested on: patient-derived ovarian xenograft (PDX) models (OVA2-BUR, CTG-0703, CTG-2213); experiment: Anti-tumor efficacy in ovarian PDX models; assay type: in vivo; conditions: BRCA1 pathogenic mutant ovarian PDX vs BRCA1 WT / benign mutant; azenosertib 60 mg/kg, niraparib 35 mg/kg
# Protocol: The OVA2-BUR model has an HRD negative/BRCA1 WT phenotype. Tumor growth inhibition was also measured using BRCA1^Glu1607Ter (pathogenic) mutant and BRCA1^Pro1099Leu (Benign) mutant PDX models.
# [5] = Body weight loss and clinical observations in ovarian PDX study; assay type: in vivo
# Protocol: Relative Body Weight (RBW), individual body weight and mean body weight loss percent were calculated for each measurement by dividing the body weight by the body weight at the start of treatment as described in Example 3.
# [6] = tested on: parental MDA-MB-436 TNBC cell line; experiment: In vitro activity (IC50) in parental MDA-MB-436; assay type: cell-based; conditions: Homo sapiens; parental MDA-MB-436; read-out: In vitro activity (IC50) Wild Type
# Protocol: (§1) Cells with BRCA reversion mutations may be considered HRD+due to genome instability (such as TAI, LST, LOH). BRCA reversion mutation is an established mechanism of resistance to both platinum-based chemotherapeutic drugs and PARP inhibitors. In vivo exploration of WEE1 inhibitors (azenosertib, adavosertib) and PARP inhibitors (niraparib, olaparib) was evaluated.
# (§2) MDA-MB-436 PARP inhibitor-resistant lines were generated by long-term in vitro treatment with a PARP inhibitor that is olaparib (Ola^R) or niraparib (Nir^R).
# [7] = tested on: MDA-MB-436 Ola^R (BRCA reversion) TNBC cell line; experiment: In vitro activity (IC50) in olaparib-resistant MDA-MB-436; assay type: cell-based; conditions: Homo sapiens; MDA-MB-436 Ola^R; read-out: In vitro activity (IC50) Olaparib^R (BRCA reversion)
# Protocol: as §1, §2
# [8] = tested on: MDA-MB-436 Nir^R (BRCA reversion) TNBC cell line; experiment: In vitro activity (IC50) in niraparib-resistant MDA-MB-436; assay type: cell-based; conditions: Homo sapiens
# Protocol: as §1, §2
# [9] = tested on: HGSOC with HRD+ status (BRCA1m); experiment: Human subject with HRD+ platinum-resistant, PARP inhibitor-resistant ovarian cancer treated with azenosertib; assay type: in vivo; conditions: one subject
# Protocol: A subject with HGSOC selected to have HRD+ status (e.g., BRCA1m) confirmed by qualitative next-generation sequencing based in vitro diagnostic test (FoundationOne®CDx) was administered azenosertib in accordance with an intermittent dosing schedule of at least 400 mg azenosertib once a day for five consecutive days, followed by two off days. The subject received azenosertib for five months. The subject is a person who received 7 prior lines of therapy: (1) carboplatin/paclitaxel/bevacizumab/olaparib (PD); (2) Pembrolizumab (PD); (3) NaPi2b targeting-ADC (XMT-1536) (PD); (4) carboplatin/gemcitabine/bevacizumab (PD); (5) Pegylated doxorubicin (PD); (6) Topotecan (PD); (7) PABP-1 RNP (ATRC-101) (PD).
# [10] = tested on: SUM149PT TNBC xenograft (BRCA1 splice isoform Δ11q); experiment: SUM149PT TNBC xenograft tumor growth inhibition; assay type: in vivo, mice
# Protocol: SUM149PT is a TNBC xenograft model harboring a BRCA1 splice isoform (Δ11q) that produces a truncated, partially functional protein which thereby promotes PARP inhibitor resistance. Azenosertib monotherapy and its combination with olaparib or AZD5305 was evaluated in the SUM149PT model in vivo in mice (FIGS. 10A-10B), and Table 12 summarizes the groups and treatments. Single agent treatment with olaparib at 100 mg/kg QD (FIG. 10A) or with the PARP1 selective inhibitor, AZD5305, at 0.1 or 1 mg/kg QD (FIG. 10B) confirmed SUM149PT resistance to PARP inhibitors.
# [11] = azenosertib 60 mg/kg p.o. qd × 5 3 cycle
# [12] = azenosertib 80 mg/kg p.o. qd × 5 3 cycle
# [13] = azenosertib 60 mg/kg and/or niraparib 35 mg/kg p.o., (5 days on, 2 days off) × 4
smiles,measurement,setting,value
"C=CCn1c(=O)c2cnc(Nc3ccc(N4CCN(C)CC4)cc3)nc2n1-c1ccc2c(n1)[C@@](O)(CC)CC2 [Azenosertib, azenosertib]","tumor size change, median",[1]; HRR wt,−5%
same,"tumor size change, median",[1]; HRRm,−33%
same,progression free survival,[1]; HRR wt,4.2 months
same,progression free survival,[1]; HRRm,8.3 months
same,% TGI Day 5,[2]; [11],54.08%
same,% TGI Day 8,[2]; [11],32.68%
same,% TGI Day 12,[2]; [11],44.02%
same,% TGI Day 15,[2]; [11],26.61%
same,% TGI Day 19,[2]; [11],14.55%
same,% TGI Day 5,[2]; [12],38.26%
same,% TGI Day 8,[2]; [12],23.80%
same,% TGI Day 12,[2]; [12],26.16%
same,% TGI Day 15,[2]; [12],19.47%
same,% TGI Day 19,[2]; [12],38.13%
same,tumor growth inhibition in HRD+ models compared to the HRD- model,[3],increased tumor growth inhibition
same,tumor growth inhibition in HRD+ model compared to BRCA1 WT or benign BRCA1 mutant models,[4],increased tumor growth inhibition
same,Max. individual BWL,[5]; [13],7.6%
same,Max. mean BWL,[5]; [13],0.7%
same,tolerability (body weight data and clinical observations),"[5]; azenosertib at 60 mg/kg, niraparib at 35 mg/kg, single agents or in combination",well tolerated
same,IC50,[6],282 nM
same,IC50,[7],174 nM
same,IC50,[8],185 nM
same,target lesion on scan,[9]; after treatment with azenosertib,no longer visualized
same,cPR (confirmed partial response),"[9]; at least 400 mg azenosertib once a day, five days on, two off, five months, 7 prior lines",−48%
same,TGI,[10]; monotherapy azenosertib 60 mg/kg QD 5:2,82%
same,TGI,[10]; monotherapy azenosertib 80 mg/kg QD 5:2,91%
same,TGI,[10]; monotherapy azenosertib 100 mg/kg QD 5:2,101%
